Values quoted from earlier work, collected in patent US8926994B2, “Mesoporous silicon particles for the presentation of tumor antigens and adjuvant for anti-cancer immunity” (The Methodist Hospital Research Institute, priority 2011, dated 2015).

System: endothelial cells

SMILES: N.N.[Cl][Pt][Cl] [cis-platin]
- relative cell cycle composition / mitosis (propidium iodide DNA content) (12 and 24 hr, 10:1 microparticles:cell): inhibited cellular mitosis
- apoptotic volume (cell death) (flow cytometry): major accumulation of cell fragments
